Square brackets hold non-standard residues; d marks the D form. Side chains are listed from the residue outwards. Peptide text beside a SMILES is read from it. His(τ-Bzl) = N[C@@H](Cc1cn(Cc2ccccc2)cn1)C(=O)O; Phe(4-F) = N[C@@H](Cc1ccc(F)cc1)C(=O)O; 2Nal = N[C@@H](Cc1ccc2ccccc2c1)C(=O)O; d2Nal = N[C@H](Cc1ccc2ccccc2c1)C(=O)O; Tle = CC(C)(C)[C@H](N)C(=O)O; dNle = CCCC[C@@H](N)C(=O)O

Drawing on patent US20170112896A1, “SMALL MOLECULE RAC OR RHO INHIBITORS” (Ohio State Innovation Foundation, priority 2014, published 2017), this text covers IC50 for seven compounds.

The test concerns H1299 lung cancer cells. The class given is cell-based. Particulars: 72 h. The protocol:
MTT assays (Mosmann, T. (1983) J. Immunol. Methods 65:55) were performed with H1299 lung cancer cells. One hundred μL of H1299 cells (0.5×10^5 cells/mL) were seeded in each well of a 96-well culture plate and allowed to grow overnight in Advanced RPMI medium supplemented with 10% fetal bovine serum (FBS) and 1% penicillin-streptomycin. Varying concentrations of cyclic peptide (0-25 μM) were added to the each well and the cells were incubated at 37° C. with 5% CO2 for 72 hours. Ten μL of a MTT stock solution (Roche) was added into each well. The plate was incubated at 37° C. for 4 h. Then 100 μL of SDS-HCl solubilizing buffer was added into each well, and the resulting solution was mixed thoroughly. The plate was incubated at 37° C. overnight. The absorbance of the formazan product was measured at 570 nm using a Molecular Devices Spectramax M5 plate reader. Each experiment was performed in triplicates and the cells without any peptide added were treated as control.

With `CCCC[C@H]1NC(=O)[C@H](Cc2ccc(F)cc2)NC(=O)[C@H](CCCNC(=N)N)NC(=O)[C@@H](Cc2ccc3ccccc3c2)NC(=O)[C@H](CCCNC(=N)N)NC(=O)[C@H](CCCNC(=N)N)NC(=O)[C@H](CCC(=O)N[C@@H](CCCCN)C(N)=O)NC(=O)[C@@H](C)NC(=O)[C@H]([C@@H](C)O)NC(=O)[C@H](Cc2c[nH]c3ccccc23)NC(=O)[C@H](CCC(N)=O)NC1=O` [Cyclorasin 9A1] (cyclo(RR[d2Nal]R[Phe(4-F)][dNle]QWT[dA]E([Lys-NH2]))), the IC50 – broadly, the point on the concentration scale where inhibition reaches its midpoint – turned out to be 13 ± 2 µM.
The value for `CCCC[C@H]1NC(=O)[C@H](Cc2ccc(F)cc2)NC(=O)[C@H](CCCNC(=N)N)NC(=O)[C@@H](Cc2ccc3ccccc3c2)NC(=O)[C@H](CCCNC(=N)N)NC(=O)[C@H](CCCNC(=N)N)NC(=O)[C@H](CCCNC(=N)N)NC(=O)[C@@H](C)NC(=O)[C@H]([C@@H](C)O)NC(=O)[C@H](Cc2cn(Cc3ccccc3)cn2)NC(=O)[C@H](CCC(N)=O)NC1=O` [Cyclorasin 9A7] (cyclo([Phe(4-F)][dNle]Q[His(τ-Bzl)]T[dA]RRR[d2Nal]R)) was 10 ± 1 µM; that for `CC(C)C[C@H]1NC(=O)[C@H](Cc2ccc(F)cc2)NC(=O)[C@H](CCCNC(=N)N)NC(=O)[C@@H](Cc2ccc3ccccc3c2)NC(=O)[C@H](CCCNC(=N)N)NC(=O)[C@H](CCCNC(=N)N)NC(=O)[C@@H](CCCNC(=N)N)NC(=O)[C@@H](C)NC(=O)[C@H]([C@@H](C)O)NC(=O)[C@H](Cc2c[nH]c3ccccc23)NC(=O)[C@H](CCC(N)=O)NC1=O` [Cyclorasin 9A10] (cyclo(WT[dA][dR]RR[d2Nal]R[Phe(4-F)][dL]Q)) was 10 ± 3 µM.
`CCCC[C@H]1NC(=O)[C@H](Cc2ccccc2)NC(=O)[C@H](CCCNC(=N)N)NC(=O)[C@@H](Cc2ccc3ccccc3c2)NC(=O)[C@H](CCCNC(=N)N)NC(=O)[C@H](CCCNC(=N)N)NC(=O)[C@@H](CCCNC(=N)N)NC(=O)[C@@H](C)NC(=O)[C@H]([C@@H](C)O)NC(=O)[C@H](Cc2c[nH]c3ccccc23)NC(=O)[C@H](CCC(N)=O)NC1=O` [Cyclorasin 9A12] registered an IC50 of 9.6 ± 1.3 µM.
In the case of `CCCC[C@H]1NC(=O)[C@H](Cc2ccc(F)cc2)NC(=O)[C@H](CCCNC(=N)N)NC(=O)[C@@H](Cc2ccc3ccccc3c2)NC(=O)[C@H](CCCNC(=N)N)NC(=O)[C@H](CCCNC(=N)N)NC(=O)[C@@H](CCCNC(=N)N)NC(=O)[C@@H](CC(C)C)NC(=O)[C@H]([C@@H](C)O)NC(=O)[C@H](Cc2c[nH]c3ccccc23)NC(=O)[C@H](CCC(N)=O)NC1=O` [Cyclorasin 9A15] (cyclo(WT[dL][dR]RR[d2Nal]R[Phe(4-F)][dNle]Q)), the IC50 came to 12 ± 1 µM.
`CCCC[C@H]1NC(=O)[C@H](Cc2ccc(F)cc2)NC(=O)[C@H](CCCNC(=N)N)NC(=O)[C@@H](Cc2ccc3ccccc3c2)NC(=O)[C@H](CCCNC(=N)N)NC(=O)[C@H](CCCNC(=N)N)NC(=O)[C@H](CCCNC(=N)N)NC(=O)[C@@H](C(C)C)NC(=O)[C@H](C(C)(C)C)NC(=O)[C@H](Cc2c[nH]c3ccccc23)NC(=O)[C@H](CCC(N)=O)NC1=O` [Cyclorasin 9A48] (cyclo(W[Tle][dV]RRR[d2Nal]R[Phe(4-F)][dNle]Q)) yielded an IC50 of 11 ± 3 µM.
Take `CCCC[C@H]1NC(=O)[C@H](Cc2ccc(F)cc2)NC(=O)[C@H](CCCNC(=N)N)NC(=O)[C@@H](Cc2ccc3ccccc3c2)NC(=O)[C@H](CCCNC(=N)N)NC(=O)[C@H](CCCNC(=N)N)NC(=O)[C@H](CCCNC(=N)N)NC(=O)[C@@H](C)NC(=O)[C@H]([C@@H](C)O)NC(=O)[C@H](Cc2ccc3ccccc3c2)NC(=O)[C@H](CCC(N)=O)NC1=O` [Cyclorasin 9A49] (cyclo([2Nal]T[dA]RRR[d2Nal]R[Phe(4-F)][dNle]Q)): the IC50 turned out to be 6.3 ± 0.4 µM.
